This is an account of results in patent US11161860B2, “Compound having effects of inhibiting phosphodiesterase 4, preparation method thereof and pharmaceutical use thereof” (Hefei Industrial Pharmaceutical Institute Co., Ltd., priority 2018, dated 2021).

Marks after values point to notes of the source that are not given here.

Assay [1] addresses T1, PDE4A enzyme (Homo sapiens, UniProt P27815).
T1 construct: GST (N); host or cells: Sf9 insect cells (baculovirus)
Kind of assay: Inhibition of the activity of PDE4A enzyme (fluorescence polarization, Transcreener AMP2/GMP2). The format is biochemical. Particulars: 1 h, mean ± spread; for remaining activity at 0.01 µM: 0.01 μM compound; for remaining activity at 0.1 µM: 0.1 μM compound; for remaining activity at 1 µM: 1 μM compound. The method, then:
The PDE4A enzyme expressed from baculovirus is labeled with N-terminal GST from Sf9 insect cells. A specified PDE4A enzyme and 1 mM cAMP are added to the newly prepared pH 7.5 Tris buffer, the enzyme solution is transferred into reaction wells, and the compound is sonicated in DMSO and then added to the enzyme solution for culturing for 10 minutes at room temperature; the substrate solution is poured into the reaction wells to initiate the reaction and cultured at room temperature for 1 hour, and a detection tracer (AMP2/GMP2 AlexaFluor 633 Tracer) and an antibody (Transcreener® AMP2/GMP2 Antibody) are added to stop the reaction for culturing for 90 minutes with gentle mixing. […]

Assay [2] has as its system DNCB-induced atopic dermatitis mice. Kind of assay: DNCB-induced dermatitis mouse model, skin thickness. The format is in vivo, female BALB/C mice. Particulars: for reduction of the thickness of the dermis compared with Crisaborole / reduction of the thickness of the epidermis compared with Crisaborole / reduction of the thickness of the dermis compared with the compound Y5 / reduction of the thickness of the epidermis compared with the compound Y5: 50 mg/mL topical; for reduction of the thickness of the dermis compared with Crisaborole / reduction of the thickness of the epidermis compared with Crisaborole: statistical comparison vs Crisaborole group; for reduction of the thickness of the dermis compared with the compound Y5 / reduction of the thickness of the epidermis compared with the compound Y5: statistical comparison vs Y5 group; for Epidermal thickness / Dermis thickness: 50 mg/mL, 100 μL applied to back skin, 11 times once a day, Mean ± SD, n = 8; for Epidermal thickness: model 137.76, blank 48.93; for Dermis thickness: model 500.71, blank 194.70. The method, then: After female BALB/C mice are selected, each weighing 18-22 g, for animal adaptive breeding for 7 days, these are randomly divided into a blank group, a model group, a positive drug Crisaborole group, a hexadecadrol group, and compound groups, with 8 in each group. Except for the mice in the blank group, the remaining mice are applied with 100 μL of a 1% DNCB solution [acetone: olive oil=4:1 (V/V)] on the skin of the back of the shaved mice, and applied continuously for 3 days once a day. Then, dosing treatment starts 4 days after the mice are housed, and the test drug is applied to the back of each group of animals, wherein animals in the blank group and the model group are applied with a corresponding solvent, the positive drug Crisaborole group and hexadecadrol group are applied with 50 mg/mL of a corresponding drug, and the administration group is applied with 50 mg/mL of a corresponding compound, with 100 μL for each mouse; after application of 4 hours, 0.5% DNCB solution is applied for secondary challenge, and repeated administration and challenge treatment are performed 11 times, once a day. 24 hours after the last administration, the animals are sacrificed, and the back skins (1×0.4 cm^2) are taken and fixed in 10% formalin buffer to make pathological sections and perform HE staining; then, the epidermal and dermal layers are observed under a 100× […], and 5 areas are selected for detection of and recording the skin thickness, and then the average value is taken to represent the final thicknesses of the epidermal layer and dermal layer, respectively.

T1 sequence (P27815 whole entry, species assumed): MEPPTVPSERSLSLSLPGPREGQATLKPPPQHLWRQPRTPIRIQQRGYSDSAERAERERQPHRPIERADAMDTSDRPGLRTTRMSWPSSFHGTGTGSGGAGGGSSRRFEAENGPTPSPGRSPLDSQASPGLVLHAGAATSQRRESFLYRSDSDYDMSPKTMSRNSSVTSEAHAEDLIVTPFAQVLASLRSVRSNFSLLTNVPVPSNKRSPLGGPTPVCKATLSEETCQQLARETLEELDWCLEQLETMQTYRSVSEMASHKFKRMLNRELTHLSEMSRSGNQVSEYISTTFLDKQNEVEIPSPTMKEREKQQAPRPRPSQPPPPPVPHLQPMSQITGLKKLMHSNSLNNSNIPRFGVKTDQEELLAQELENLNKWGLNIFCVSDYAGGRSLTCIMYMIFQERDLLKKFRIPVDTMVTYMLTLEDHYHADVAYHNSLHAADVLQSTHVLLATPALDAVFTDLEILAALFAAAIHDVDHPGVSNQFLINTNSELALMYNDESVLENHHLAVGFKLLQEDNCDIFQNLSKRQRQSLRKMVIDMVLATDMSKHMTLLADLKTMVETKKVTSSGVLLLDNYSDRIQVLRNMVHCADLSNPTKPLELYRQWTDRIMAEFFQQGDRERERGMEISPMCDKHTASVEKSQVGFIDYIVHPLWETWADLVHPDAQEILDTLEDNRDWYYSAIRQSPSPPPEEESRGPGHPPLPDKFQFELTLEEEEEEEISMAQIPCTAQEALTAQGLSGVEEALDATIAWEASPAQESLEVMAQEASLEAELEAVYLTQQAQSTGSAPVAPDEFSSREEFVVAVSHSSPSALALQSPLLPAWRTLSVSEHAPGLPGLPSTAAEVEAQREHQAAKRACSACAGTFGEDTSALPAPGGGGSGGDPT

In assay [1], `CC(=O)c1cccc2nc(Oc3ccc4c(c3)COB4O)ccc12` [PD-12] yielded a remaining activity at 0.01 µM of 22.1 ± 0.57%, a remaining activity at 0.1 µM of 6.2 ± 1.23% and a remaining activity at 1 µM of 3.46 ± 1.12%. In addition, in assay [2], the “reduction of the thickness of the dermis compared with Crisaborole” value is recorded as “significantly reduce the thickness of the dermis of dermatitis mice (P≤0.01)”, the “reduction of the thickness of the epidermis compared with Crisaborole” value is listed as “significantly reduce the thickness of the epidermis (P≤0.01)”, the “reduction of the thickness of the dermis compared with the compound Y5” value is “significantly reduce the thickness of the dermis of dermatitis mice (P≤0.01)” and the “reduction of the thickness of the epidermis compared with the compound Y5” value is on record as “significantly reduce the thickness of the epidermis (P≤0.01)”. Further, in assay [2], the Epidermal thickness amounted to 72.15 ± 8.57 aa μm and the Dermis thickness is 362.44 ± 25.78 ^a a μm.

In assay [1], `NC(=O)c1ccc2nc(Oc3ccc4c(c3)COB4O)ccc2c1` [PD-13] came in with a remaining activity at 0.01 µM of 21.7 ± 1.51%, a remaining activity at 0.1 µM of 8.68 ± 0.89% and a remaining activity at 1 µM of 1.44 ± 0.4%. In assay [2], the Epidermal thickness came out at 100.23 ± 11.62 μm and the Dermis thickness came to 450.26 ± 25.55 μm.

Take `CC(=O)c1ccc2nc(Oc3ccc4c(c3)COB4O)ccc2c1` [PD-14]: in assay [1], the remaining activity at 0.01 µM stood at 3.57 ± 1.08%, the remaining activity at 0.1 µM was determined as 1.26 ± 1.17% and the remaining activity at 1 µM came to 0.15 ± 0.1%. Also, in assay [2], the “reduction of the thickness of the dermis compared with Crisaborole” value is given as “significantly reduce the thickness of the dermis of dermatitis mice (P≤0.01)”, the “reduction of the thickness of the epidermis compared with Crisaborole” value is reported as “significantly reduce the thickness of the epidermis (P≤0.01)”, the “reduction of the thickness of the dermis compared with the compound Y5” value is listed as “significantly reduce the thickness of the dermis of dermatitis mice (P≤0.01)” and the “reduction of the thickness of the epidermis compared with the compound Y5” value is “significantly reduce the thickness of the epidermis (P≤0.01)”. For the same molecule, in assay [2], the Epidermal thickness stood at 75.24 ± 7.98 aa μm and the Dermis thickness is listed as 365.40 ± 21.95 ^a a μm.

Turning to `OB1OCc2cc(Oc3ccc4cc(C(F)(F)F)c(Cl)cc4n3)ccc21` [PD-15], in assay [1], the remaining activity at 0.01 µM was determined as 2.09 ± 0.99%, the remaining activity at 0.1 µM is 0.54 ± 0.5% and the remaining activity at 1 µM was 1.08 ± 0.4%. In assay [2], the “reduction of the thickness of the dermis compared with Crisaborole” value is on record as “significantly reduce the thickness of the dermis of dermatitis mice (P≤0.01)”, the “reduction of the thickness of the epidermis compared with Crisaborole” value is “significantly reduce the thickness of the epidermis (P≤0.01)”, the “reduction of the thickness of the dermis compared with the compound Y5” value was “significantly reduce the thickness of the dermis of dermatitis mice (P≤0.01)” and the “reduction of the thickness of the epidermis compared with the compound Y5” value is recorded as “significantly reduce the thickness of the epidermis (P≤0.01)”. In assay [2], the Epidermal thickness is 74.28 ± 8.26**^##aa μm and the Dermis thickness is 376.62 ± 23.73 ^a a μm.

In assay [1], `N#Cc1cc2ccc(Oc3ccc4c(c3)COB4O)nc2cc1Cl` [PD-16] registered a remaining activity at 0.01 µM of 1.05 ± 1.26%, a remaining activity at 0.1 µM of 0.45 ± 0.3% and a remaining activity at 1 µM of 0.21 ± 0.57%. In assay [2], the “reduction of the thickness of the dermis compared with Crisaborole” value is “significantly reduce the thickness of the dermis of dermatitis mice (P≤0.01)”, the “reduction of the thickness of the epidermis compared with Crisaborole” value was “significantly reduce the thickness of the epidermis (P≤0.01)”, the “reduction of the thickness of the dermis compared with the compound Y5” value is on record as “significantly reduce the thickness of the dermis of dermatitis mice (P≤0.05)” and the “reduction of the thickness of the epidermis compared with the compound Y5” value was “significantly reduce the thickness of the epidermis (P<0.05)”. In assay [2], the Epidermal thickness turned out to be 78.64 ± 9.75 a μm and the Dermis thickness was found to be 388.46 ± 24.06 a μm.
